One test relates to MMP-9. As to the kind of experiment: MMP-9 expression in macrophages by quantitative ICC. Particulars: quantitative ICC (FIG. 16F-16G). Type of test: cell-based, mouse. The protocol: (§1) To test amyloid-β phagocytosis by macrophage, in repeated experiments monocytes were isolated from the bone marrow of wild-type mice (n=18 mice) and differentiated into macro-phage by 7-day cultivation in complete RPMI-1640 medium (#21870; Life Technologies) with 10% serum and 20 ng/ml MCSF (#315-02; PeproTech). Bone marrow-derived macrophages (MΦBM) were generated from femurs and tibiae cultured for 6-7 days in complete RPMI 1640 medium (Life Technologies) with 10% FBS, 100 U/ml penicillin, 100 μg/ml streptomycin, 2 mM L-glutamine and 20 ng/ml MCSF (PeproTech). Primary cultures of macrophage were then plated at 1.2×10^5 cells per well (3-4 wells for each condition) in 24-well tissue-culture plates on glass cover-slips overnight. Next, macrophages were either treated with 30 μg/ml GA (Copaxone®; TEVA Neuroscience), Brefeldin A (BFA; Sigma, 1X), or 10 μM Minocycline (Sigma) for the duration of 1, 3, or 24 h, or not treated (control group). […] The fluorescent signal and its total area were determined and quantified by the conversion of individual images to greyscale and standardizing to baseline using histogram-based thresholds with NIH ImageJ software. […]
Next, MMP-9 expression and OPN proteolytic fragments were analyzed. […]

Another test deals with iNOS. As to the kind of experiment: iNOS expression in macrophages by quantitative ICC. The class given is cell-based, mouse. Particulars: 24 hours treatment, then fAβ1-42 for 30 min; quantitative ICC (FIG. 16D). How it is done: as §1, with “overnight.” for “overnight. Next, macrophages were either treated with 30 μg/ml GA (Copaxone®; TEVA Neuroscience), Brefeldin A (BFA; Sigma, 1X), or 10 μM Minocycline (Sigma) for the duration of 1, 3, or 24 h, or not treated (control group).”
The expression of inducible nitric oxide synthase (iNOS), a hallmark of the proinflammatory M1 macrophage phenotype, in different treatment groups was assessed next (FIG. 16C-16D). […] Quantitative ICC assays confirmed a significant ˜1.3-fold increase in iNOS expression by minocycline-treated macrophages, and a substantial 48% reduction in Aβ^1-42 phagocytosis. […]

This note sets out measurements from US11779600B2, “Methods of treating or preventing alzheimer's disease and associated conditions” (CEDARS-SINAI MEDICAL CENTER, priority 2016, dated 2023).

As for glatiramer acetate [GA], in the test with MMP-9, the “increase of MMP-9 expression in macrophages” value was found to be 2.7 fold. In addition, the “reduction of iNOS production” value in the test with iNOS came out at 28%.
